Patent publication US9062050B2, “Inhibitor of JAK1 and JAK2” (Eli Lilly and Company, priority 2012, dated 2015)

Tests used:
JAK3 = molecular target: T1, JAK3 (Homo sapiens, UniProt P52333); experiment: JAK LanthaScreen Kinase Assay (TR-FRET), JAK3; format: biochemical
T1 sequence (P52333 1-1124): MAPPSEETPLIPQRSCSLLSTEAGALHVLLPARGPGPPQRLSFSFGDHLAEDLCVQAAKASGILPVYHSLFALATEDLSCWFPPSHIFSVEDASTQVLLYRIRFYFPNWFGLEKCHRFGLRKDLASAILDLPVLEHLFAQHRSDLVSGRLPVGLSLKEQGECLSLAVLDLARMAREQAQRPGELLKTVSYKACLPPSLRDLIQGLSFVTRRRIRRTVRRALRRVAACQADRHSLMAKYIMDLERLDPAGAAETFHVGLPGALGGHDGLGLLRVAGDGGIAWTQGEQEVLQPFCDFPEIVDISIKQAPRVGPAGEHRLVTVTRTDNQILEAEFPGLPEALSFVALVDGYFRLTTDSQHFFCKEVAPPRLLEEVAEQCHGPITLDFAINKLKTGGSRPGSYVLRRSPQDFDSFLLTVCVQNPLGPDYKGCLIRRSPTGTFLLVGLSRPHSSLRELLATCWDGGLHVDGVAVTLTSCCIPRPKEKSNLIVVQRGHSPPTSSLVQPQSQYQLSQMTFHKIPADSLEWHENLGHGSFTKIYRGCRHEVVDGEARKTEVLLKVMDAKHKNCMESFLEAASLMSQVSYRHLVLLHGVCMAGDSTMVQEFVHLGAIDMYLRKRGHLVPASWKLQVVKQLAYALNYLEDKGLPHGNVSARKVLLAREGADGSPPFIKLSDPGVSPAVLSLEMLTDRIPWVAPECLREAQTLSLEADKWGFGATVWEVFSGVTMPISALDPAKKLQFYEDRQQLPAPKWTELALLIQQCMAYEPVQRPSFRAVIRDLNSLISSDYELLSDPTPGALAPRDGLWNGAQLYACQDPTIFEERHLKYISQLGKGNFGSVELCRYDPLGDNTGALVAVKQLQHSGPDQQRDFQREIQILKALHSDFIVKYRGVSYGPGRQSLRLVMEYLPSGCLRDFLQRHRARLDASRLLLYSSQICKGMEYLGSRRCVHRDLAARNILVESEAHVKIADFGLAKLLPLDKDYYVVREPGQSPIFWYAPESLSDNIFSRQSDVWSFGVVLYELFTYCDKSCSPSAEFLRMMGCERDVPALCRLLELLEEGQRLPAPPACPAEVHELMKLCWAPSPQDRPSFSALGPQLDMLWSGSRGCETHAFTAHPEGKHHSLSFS
From the text: The JAK LanthaScreen™ Kinase Assay (Life Technologies, #PV4844) is used to determine compound IC50 values against the JAK1, JAK2, and JAK3 kinases. This kinase assay is a Time Resolved Fluorescence Resonance Energy Transfer (TR-FRET) assay format that uses long-lifetime terbium (Tb) labeled antibody as the donor species and Green Fluorescent Protein-Signal Transducers and Activators of Transcription (GFP-STAT1) as the acceptor species.
The TR-FRET ratio is used to monitor JAK1, JAK2, or JAK3 activity where an increase in phosphorylation of the GFP-STAT1 results in an increase in the TR-FRET ratio. Perform the kinase reaction using a 12.5 microliter reaction volume in shallow black 384-well Proxiplate (PerkinElmer, #6008260). […] Incubate at room temperature for 90 minutes, and read in an EnVision plate reader (PerkinElmer, #2104-0010) with 340 nm wavelength excitation filter and emission filters of 520 nm and 495 nm wavelengths. The ratio is derived from the emission wavelength for the GFP-STAT1 which is measured at 520 nanometer versus the emission at 495 nanometer for the Tb-anti-pSTAT1[pTyr701]. Derive the IC50 value for the compound using percent inhibition data, which is calculated from the reaction data relative to on-plate controls (active enzyme versus 2.0 micromolar control-inhibited enzyme). […]

IL-6-STAT3 signaling = experiment: DS1-AlphaScreen-pSTAT3 cell-based assay; conditions: DS1 cells, IL6 10 ng/ml; read-out: IC50, inhibits IL-6-STAT3 signaling (pSTAT3)
Method: The DS1-AlphaScreen-pSTAT3-cell-based assay is used to examine the potency of compounds at blocking the IL6-stimulated STAT3 pathway. The JAK-STAT3 pathway is constitutively active in many types of cancers and is implicated in tumor cells for increasing proliferation, survival, and invasion. DS1 cells (ATCC) are cultured in RPMI complete medium with 10% FBS and then adopted and grown in DMEM/High Modified medium supplemented with 10% FBS at 37° C. at 95% humidity and under an atmosphere of 5% CO2. DS1 cells are plated at a density of 4×10^4 cells/well in 96 well-plates and cultured in serum-free culture medium at 37° C. for three hours, followed by pre-treatment either with vehicle alone (DMSO) or test compounds across a range of final concentrations from 0-20 μM for 10 min. IL6 (R&D System, 206-IL) is then added into the cell culture at 10 ng/ml final concentration, which is continued for an additional 30 min at 37° C. Finally, cells are lysed with 5× alpha lysis buffer and transferred to a 384-well plate (PerkinElmer, #6008280) filled with the reaction mixture (TGR Biosciences, South Australia, Australia, #TGRS3S10K) for pSTAT3 detection (#TGRS3SHV100). The plates are sealed and incubated at room temperature for 2 hours, and pSTAT3 is measured by using an Envision06 plate reader (TGR Biosciences, South Australia, Australia). The data are analyzed with ActivityBase 4.0.

**Q.** With `Cc1cc(Nc2ccc3ncn([C@@H]4CCc5ccc(F)cc54)c3n2)[nH]n1.Cl.Cl` [Example 1, 3-[(1R)-6-fluoro-2,3-dihydro-1H-inden-1-yl]-N-(3-methyl-1H-pyrazol-5-yl)-3H-imidazo[4,5-b]pyridin-5-amine dihydrochloride] as the compound, how does the IC50 (JAK3; enzyme assay, 2 micromolar ATP, n=6, read-out: IC50 against JAK3) read?
**A.** Its IC50 is 8 nM.

**Q.** What about the “selectivity for JAK1 and JAK2 over JAK3 in the enzyme assays” value (JAK3; enzyme assays, JAK1 and JAK2 versus JAK3) of the same compound?
**A.** The value was “greater than four-fold”.

**Q.** What about the IC50 (IL-6-STAT3 signaling) of the same compound?
**A.** Its IC50 is 66 nM.
